Where a name gives a salt, the structure may show the parent alone.
Assays:
5-HT1BR = 5-HT1BR (Mus musculus, UniProt P28334)
Experimental: Counting was done based on the endogenous fluorescence. […] (d) Number of vessels (counted with endogenous GFP from Flk1^GFP/+ mouse) in fluoxetine, fluoxetine and 5HT1B inhibitor, inhibitor alone per mm^2 in the heart.
Statistical analysis was performed using GraphPad Prism software using appropriate tests (non-parametric Mann-Whitney unless specified) and a minimum of 95% confidence interval for significance; p values indicated on figures are <0.05 (*), <0.01 (**), and <0.001 (***). Figures display average values of all animals tested ±SD

C57Bl/6 mice = assay: Ischemia reperfusion (myocardial infarct), infarcted area by histology; type: in vivo; settings: C57Bl/6 mice treated with fluoxetine for 6 weeks
Experimental: (e-f) Haematoxylin and eosin staining of heart of the placebo and the fluoxetine treated mice. (g) Quantification of the infarcted area with or without fluoxetine treatment.
Animals were anesthetized with ketamine (Imalgene1000 100 mg/Kg Merial) and Xylazine (Rompun2% 20 mg/Kg Bayer) prior to injury. Animals were hydrated and treated with analgesic (Buprenorphin Axience 0.3 mg/kg) twice a day for 4 days following injury.
(§1) Hearts were carefully dissected and snap frozen in liquid-nitrogen-cooled OCT for a few minutes and stored at −80° C. prior to cryosectioning (10 μm sections). Sections were kept at room temperature overnight before staining. Sections were then rehydrated in PBS for 10 minutes and fixed in 10% formalin for 3 minutes. The sections were then routinely stained with haematoxylin and eosin (HE) using an automated stain machine or manually with red sirius.
For image analysis (fibrosis quantification) ImageJ 1.46r software was using between different photos randomly taken per section and 3 sections minimum per experimental group. The pictures were converted in a binary image and the pixel values then collected.
Statistical analysis was performed using GraphPad Prism software using appropriate tests (non-parametric Mann-Whitney unless specified) and a minimum of 95% confidence interval for significance; p values indicated on figures are <0.05 (*), <0.01 (**), and <0.001 (***). […]

Flk1^GFP/+ mice = assay: Vessel number in the heart of Flk1GFP/+ mice after 6 weeks of fluoxetine; type: in vivo; settings: fluoxetine 18 mg/Kg
Text: Counting was done based on the endogenous fluorescence. (b-c) Cryo-sections of the heart of Flk1^GFP/+ mice treated with placebo (b) or fluoxetine (c). Endogenous GFP levels are shown. (d) Number of vessels (counted with endogenous GFP from Flk1^GFP/+ mouse) in fluoxetine, fluoxetine and 5HT1B inhibitor, inhibitor alone per mm^2 in the heart. (e-f) Haematoxylin and eosin staining of heart of the placebo and the fluoxetine treated mice. (g) Quantification of the infarcted area with or without fluoxetine treatment.
as §1
Statistical analysis was performed using GraphPad Prism software using appropriate tests (non-parametric Mann-Whitney unless specified) and a minimum of 95% confidence interval for significance; p values indicated on figures are <0.05 (*), <0.01 (**), and <0.001 (***). Figures display average values of all animals tested ±SD […]

Chain of 5-HT1BR (P28334 whole entry, the tested form may be a part): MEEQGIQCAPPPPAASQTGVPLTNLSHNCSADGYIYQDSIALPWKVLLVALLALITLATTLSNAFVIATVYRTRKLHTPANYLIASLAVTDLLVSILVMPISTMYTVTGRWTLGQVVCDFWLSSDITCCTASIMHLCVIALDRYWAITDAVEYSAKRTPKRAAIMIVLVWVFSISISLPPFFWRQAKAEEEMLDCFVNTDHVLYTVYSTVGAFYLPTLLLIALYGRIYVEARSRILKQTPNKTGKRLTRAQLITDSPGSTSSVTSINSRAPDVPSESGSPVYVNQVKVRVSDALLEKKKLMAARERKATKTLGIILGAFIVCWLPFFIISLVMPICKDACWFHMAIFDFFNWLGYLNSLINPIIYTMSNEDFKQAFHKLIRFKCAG

SMILES | effect of 5-HT1BR inhibition on the fluoxetine-induced increase in vessel number in the heart (5-HT1BR; GR127935 hydrochloride in osmotic pump together with fluoxetine treatment) | vessel number in the heart (5-HT1BR; fluoxetine and PBS treated mice) | infarcted area at the histological level (C57Bl/6 mice; 3 days after infarct, placebo 53126±11849, p=0.02) | infarcted area, first observation after ischemia reperfusion (C57Bl/6 mice; control 5%) | vessel number in the heart (Flk1^GFP/+ mice; 6 weeks IP, placebo 932.9±186, p=0.017) | vessel number in the heart (Flk1^GFP/+ mice; 6 weeks PO, placebo 932.9±186, p=0.03)
COc1ccc(NC(=O)c2ccc(-c3ccc(-c4noc(C)n4)cc3C)cc2)cc1N1CCN(C)CC1 [GR127935 hydrochloride] | no increase in the vessel number in the heart was observed | – | – | – | – | –
CNCCC(Oc1ccc(C(F)(F)F)cc1)c1ccccc1 (stereo not drawn) [fluoxetine] | – | 1697±702 vessels per mm^2 | 36690±7884 pixels | 25 % of total area | 1634±608 vessels | 1474±375 vessels

Source: patent publication US20180303772A1, “5-HYDROXYTRYPTAMINE 1B RECEPTOR-STIMULATING AGENT FOR THE TREATMENT OF MYOCARDIAL INFARCTION” (INSTITUT PASTEUR, priority 2015, published 2018)
